In patent publication US9255295B2, “Method for evaluating the sensitizing potential of a test compound” (IMMUNOSEARCH, priority 2010, dated 2016):

How the values were obtained:
[1] = system: genes specific for sensitization (BRAK, CTSS, DAPK2, FABP4, HSP27, IL18, HSP90, IL1R2, TPSAB1, CXCR1, DEFB1, DHFR, EHF, IVL, KRT4, MELANA, NGAL, PDZK1IP1, PI3 …); assay: Expression of the other (non-ARE) sensitization-specific genes in EPISKIN reconstructed skin (quantitative RT-PCR); assay type: cell-based, human
EPISKIN model = assay: Sensitizing power: sensitizing potential retested at successive dilutions in the EPISKIN model
Source text: “Sensitizing power” means the ability of a given compound to induce a sensitization reaction according to the concentration of said compound. Sensitizing power is dependent on the quantity of substance necessary to induce sensitization. Thus, the lower the sensitizing quantity necessary to induce a sensitizing response, the stronger the sensitizer is, and vice versa, the higher the sensitizing quantity necessary to induce a sensitizing response, the weaker the sensitizer is.
Thus, steps 1) and 2) will be done for each of the dilutions.

Oc1ccc(O)cc1 [Hydroquinone]
CTSS expression compared to control ([1]; 10%): 0.8
CTSS grade (NUMBER OF GENES) ([1]; 10%): 0 (if this expression is lower, the grade is 0)
CXCR1 expression compared to control ([1]; 10%): 2.2
CXCR1 grade (NUMBER OF GENES) ([1]; 10%): 1 (If the expression is greater than 1.3 compared to the control, a grade of 11s given)
DAPK2 expression compared to control ([1]; 10%): 1.2
DAPK2 grade (NUMBER OF GENES) ([1]; 10%): 0 (if this expression is lower, the grade is 0)
DEFB1 expression compared to control ([1]; 10%): 1.5
DEFB1 grade (NUMBER OF GENES) ([1]; 10%): 1 (If the expression is greater than 1.3 compared to the control, a grade of 11s given)
DHFR expression compared to control ([1]; 10%): 0.7
DHFR grade (NUMBER OF GENES) ([1]; 10%): 0 (if this expression is lower, the grade is 0)
EHF expression compared to control ([1]; 10%): 1.2
EHF grade (NUMBER OF GENES) ([1]; 10%): 0 (if this expression is lower, the grade is 0)
FABP4 expression compared to control ([1]; 10%): 1.2
FABP4 grade (NUMBER OF GENES) ([1]; 10%): 0 (if this expression is lower, the grade is 0)
HSP27 expression compared to control ([1]; 10%): 1.0
HSP27 grade (NUMBER OF GENES) ([1]; 10%): 0 (if this expression is lower, the grade is 0)
HSP90 expression compared to control ([1]; 10%): 1.2
HSP90 grade (NUMBER OF GENES) ([1]; 10%): 0 (if this expression is lower, the grade is 0)
IL18 expression compared to control ([1]; 10%): 0.9
IL18 grade (NUMBER OF GENES) ([1]; 10%): 0 (if this expression is lower, the grade is 0)
IVL expression compared to control ([1]; 10%): 1.8
IVL grade (NUMBER OF GENES) ([1]; 10%): 1 (If the expression is greater than 1.3 compared to the control, a grade of 11s given)
KRT4 expression compared to control ([1]; 10%): 1.2
KRT4 grade (NUMBER OF GENES) ([1]; 10%): 0 (if this expression is lower, the grade is 0)
MELANA expression compared to control ([1]; 10%): 0.9
MELANA grade (NUMBER OF GENES) ([1]; 10%): 0 (if this expression is lower, the grade is 0)
NGAL expression compared to control ([1]; 10%): 2.0
NGAL grade (NUMBER OF GENES) ([1]; 10%): 1 (If the expression is greater than 1.3 compared to the control, a grade of 11s given)
P13 expression compared to control ([1]; 10%): 1.4
P13 grade (NUMBER OF GENES) ([1]; 10%): 0 (if this expression is lower, the grade is 0)
PDZK1iP1 expression compared to control ([1]; 10%): 1.0
PDZK1iP1 grade (NUMBER OF GENES) ([1]; 10%): 0 (if this expression is lower, the grade is 0)
SENS >1.3 (NUMBER OF GENES) ([1]; 10%): 4
SERPINB3 expression compared to control ([1]; 10%): 1.1
SERPINB3 grade (NUMBER OF GENES) ([1]; 10%): 0 (if this expression is lower, the grade is 0)
TOTAL SENS (NUMBER OF GENES) ([1]; 10%): 4
BRAK expression compared to control ([1]; 50%): 0.8
BRAK grade (NUMBER OF GENES) ([1]; 50%): 0 (if this expression is lower, the grade is 0)
CTSS expression compared to control ([1]; 50%): 1.6
CTSS grade (NUMBER OF GENES) ([1]; 50%): 1 (If the expression is greater than 1.3 compared to the control, a grade of 11s given)
CXCR1 expression compared to control ([1]; 50%): 2.9
CXCR1 grade (NUMBER OF GENES) ([1]; 50%): 1 (If the expression is greater than 1.3 compared to the control, a grade of 11s given)
DAPK2 expression compared to control ([1]; 50%): 1.0
DAPK2 grade (NUMBER OF GENES) ([1]; 50%): 0 (if this expression is lower, the grade is 0)
DEFB1 expression compared to control ([1]; 50%): 2.0
DEFB1 grade (NUMBER OF GENES) ([1]; 50%): 1 (If the expression is greater than 1.3 compared to the control, a grade of 11s given)
DHFR expression compared to control ([1]; 50%): 1.1
DHFR grade (NUMBER OF GENES) ([1]; 50%): 0 (if this expression is lower, the grade is 0)
EHF expression compared to control ([1]; 50%): 1.5
EHF grade (NUMBER OF GENES) ([1]; 50%): 1 (If the expression is greater than 1.3 compared to the control, a grade of 11s given)
FABP4 expression compared to control ([1]; 50%): 1.4
FABP4 grade (NUMBER OF GENES) ([1]; 50%): 1 (If the expression is greater than 1.3 compared to the control, a grade of 11s given)
HSP27 expression compared to control ([1]; 50%): 1.3
HSP27 grade (NUMBER OF GENES) ([1]; 50%): 0 (if this expression is lower, the grade is 0)
HSP90 expression compared to control ([1]; 50%): 1.8
HSP90 grade (NUMBER OF GENES) ([1]; 50%): 1 (If the expression is greater than 1.3 compared to the control, a grade of 11s given)
IL18 expression compared to control ([1]; 50%): 0.9
IL18 grade (NUMBER OF GENES) ([1]; 50%): 0 (if this expression is lower, the grade is 0)
IVL expression compared to control ([1]; 50%): 2.6
IVL grade (NUMBER OF GENES) ([1]; 50%): 1 (If the expression is greater than 1.3 compared to the control, a grade of 11s given)
KRT4 expression compared to control ([1]; 50%): 1.1
KRT4 grade (NUMBER OF GENES) ([1]; 50%): 0 (if this expression is lower, the grade is 0)
MELANA expression compared to control ([1]; 50%): 1.6
MELANA grade (NUMBER OF GENES) ([1]; 50%): 1 (If the expression is greater than 1.3 compared to the control, a grade of 11s given)
NGAL expression compared to control ([1]; 50%): 1.3
NGAL grade (NUMBER OF GENES) ([1]; 50%): 0 (if this expression is lower, the grade is 0)
P13 expression compared to control ([1]; 50%): 1.7
P13 grade (NUMBER OF GENES) ([1]; 50%): 1 (If the expression is greater than 1.3 compared to the control, a grade of 11s given)
PDZK1iP1 expression compared to control ([1]; 50%): 1.0
PDZK1iP1 grade (NUMBER OF GENES) ([1]; 50%): 0 (if this expression is lower, the grade is 0)
SENS >1.3 (NUMBER OF GENES) ([1]; 50%): 11
SERPINB3 expression compared to control ([1]; 50%): 1.1
SERPINB3 grade (NUMBER OF GENES) ([1]; 50%): 0 (if this expression is lower, the grade is 0)
TOTAL SENS (NUMBER OF GENES) ([1]; 50%): 11
sensitizing potential (Sensitizing / Non-sensitizing) (EPISKIN model; 1%): Sensitizing
sensitizing potential (Sensitizing / Non-sensitizing) (EPISKIN model; 10%): Sensitizing
sensitizing potential (Sensitizing / Non-sensitizing) (EPISKIN model; 50%): Sensitizing
sensitizing power (class) (EPISKIN model; from successive dilutions 50%, 10%, 1%, 0.1%): STRONG
